Values after ≈ are worked out from the molar mass of the structure shown.
How the values were obtained:
[1] = system: E. coli; test: MIC determination by microbroth dilution; assay type: cell-based; settings: Escherichia coli, ATCC25922; ATCC 25922
Description: (§1) Minimal inhibitory concentration (MIC) determination. The detection of MIC was performed by the microbroth dilution method with reference to the previously report by Wang et al^2. Briefly, the fresh bacterial suspension was adjusted to a McF standard equivalent of 0.5 (~1.5 × 10^8 CFU/mL) and then 100-fold diluted with MH broth. Fifty microliters of bacterial suspension with equal volume of serially diluted compounds (1-128 µg/mL) were added into a 96-well cell plate (Corning Costar, the United States) and incubated at 37°C for 16-18 h. The bacterial suspension without compounds was used as a negative control. The lowest concentration that inhibited visible bacterial growth was considered as the value of MIC.

[2] = system: P. aeruginosa; test: MIC determination by microbroth dilution; assay type: cell-based; settings: Pseudomonas aeruginosa, PAO1
Description: as §1

[3] = system: E. faecium; test: MIC determination by microbroth dilution; assay type: cell-based; settings: Enterococcus faecium
Description: as §1

[4] = system: E. faecalis; test: MIC determination by microbroth dilution; assay type: cell-based; settings: Enterococcus faecalis
Description: as §1

[5] = system: K. pneumoniae; test: MIC determination by microbroth dilution; assay type: cell-based; settings: Klebsiella pneumoniae, ATCC700603; ATCC 700603
Description: as §1

[6] = system: S. epidermidis; test: MIC determination by microbroth dilution; assay type: cell-based; settings: Staphylococcus epidermidis
Description: as §1

[7] = system: A. baumannii; test: MIC determination by microbroth dilution; assay type: cell-based; settings: Acinetobacter baumannii, ATCC19606; ATCC 19606
Description: as §1

[8] = system: Salmonella typhimurium (TA97a, TA98, TA100, and TA1535) and E. coli WP2 uvrA (pKM101); test: Ames test (overall); assay type: cell-based
Description: Ames test. Genotoxicity of the compounds was determined by Ames Kit (IPHASE, Beijing, China) containing Salmonella typhimurium (TA97a, TA98, TA100, and TA1535) and E. coli WP2 uvrA (pKM101). Diclofenac and 2-aminofluorene were used as positive controls for TA97a and TA98. Methyl methanesulfonate and 2-aminofluorene were used as positive controls for TA100. Methyl methanesulfonate and 2-aminoanthracene were used as positive controls for WP2 uvrA (pKM101). NaN3 and 2-aminoanthracene were used as positive controls for TA1535. The bottom and top layer culture medium, and S9 mixed solution were prepared according to the manufacturer’s instructions. After incubation at 37℃ for 48h, the colonies were counted.

[9] = system: S. aureus; test: Drug combination by checkerboard dilution assay; assay type: cell-based; settings: STK848198 with SM, TOB, AMP, fosfomycin, SIS, gentamycin
Description: Drug combination assay. The potential combinational antimicrobial effects between individual drugs were determined by checkerboard dilution assay. Briefly, overnight cultured S. aureus was diluted in MH broth to ~1× 10^6 CFU/mL. Compounds were two-fold diluted by MH broth, then 50 μL of each compound were added to each well vertically and horizontally, respectively, in a 96-well cell culture plate. […] The fractional inhibitory concentration index (FICI) was calculated as (MICA in combination/MICA alone) + (MICB in combination/MICB alone)^20.

[10] = In vivo toxicity analysis; set-up: species or system ICR mice; settings: acute, i.p. 30 mg/kg, 24 h
Description: In vivo toxicity analysis. For acute in vivo toxicity determination, specific ICR female mice (N = 6 per group) were randomly divided into 3 groups. The mice were intraperitoneally injected with EL+ ethanol (vehicle group), or 30 mg/kg of […]=0546 or STK848198. Twenty-four hours post-administration, blood samples were collected from the ophthalmic venous plexus and the hematological parameters of white blood cell count (WBC), neutrophil ratio (N%), red blood cell count (RBC), hemoglobin levels (HGH), and platelet count (PLT) were measured. Meanwhile, serum samples were also collected by centrifuged at 4000 rpm for 10 min. And the biomarkers of alanine aminotransferase (ALT), urea nitrogen (BUN), and creatine kinase (CK) for liver, kidney and heart function monitoring, respectively, were also analyzed. Then, the mice were euthanized, and the organs of heart, liver, spleen, lungs and kidneys were removed and fixed in 4% neutral paraformaldehyde for Hematoxylin and eosin (H&E) staining. In addition, for 7-day in vivo toxicity detection, specific ICR female mice (N=5 per group) were intraperitoneally injected with 30 mg/kg of […]=0546 or STK848198 every day for a total of 7 days. The body weight was monitored, and the blood samples and organs were also collected and analyzed as described above^43.

[11] = system: S. aureus biofilm; test: Biofilm determination by crystal violet staining; assay type: cell-based
Description: Biofilm determination by crystal violet staining. The biofilm was formed as described above. The planktonic (non-adherent) bacteria were removed by washing the wells with PBS. Added a solution of 0.15% (wt/vol) crystal violet to each well and incubated for 15 min at room temperature. Then, the plates were gently wash with PBS to remove excess crystal violet. One hundred microliters of ethanol were added to each well to solubilize the crystal violet that has bound to the biofilm. The absorbance at 570nm (A570nm) of the solubilized crystal violet was measured with a microplate reader^6.
Biofilm determination by XTT assay. To determine the biofilm inhibition, overnight cultures of S. aureus were diluted with TSB containing 2-fold diluted antimicrobials at the ratio of 1: 100 and added to a 96-well plate. After incubation statically at 37 ℃ for 24h, the supernatant was carefully removed and washed with PBS. (2,3-Bis-(2-methoxy-4-nitro-5-sulfophenyl)-2H-tetrazolium-5-carboxanilide) (XTT, 0.2 mg/ml) and Phenazin (methylsufate) (PMS, 0.02 mg/ml) were mixed with 1× PBS and added to each well of the 96-well plate (100 μL/well). The plate was then incubated for 3h in the dark, and the absorbance was measured at 490 nm (A490nm). For biofilm eradication, overnight cultures of S. aureus were diluted with fresh TSB at 1:100 and incubated for 24h to pre-form biofilms. […]

[12] = system: S. aureus ATCC 43300; test: Concentration-dependent growth inhibition; assay type: cell-based
Description: Concentration-dependent growth inhibition. S. aureus was cultured in TSB to log phase, and diluted with MH broth to ~2×10^6 CFU/mL. One hundred microliters of the bacterial suspension with an equal volume of 2-fold diluted compounds were added in a 96-well cell culture plate. After incubation at 37 ℃ for 16h, the bacterial growth was quantified by measuring the OD value at 630nm (OD630nm).

With `Cc1nc2c(-c3ccc(Cl)cc3)cnn2c(O)c1Cc1ccccc1` [STK848198] the MIC [1] was over 32 µg/mL, the MIC [2] was over 32 µg/mL and the MIC ([3]; ATCC19434, ATCC 19434) was 8 µg/mL (≈ 22.9 µM). It also gave an MIC ([3]; U101, vancomycin resistant strain) of 4 µg/mL (≈ 11.4 µM), an MIC ([4]; ATCC29212, ATCC 29212) of 4 µg/mL (≈ 11.4 µM) and an MIC ([4]; ATCC51299, ATCC 51299, vancomycin resistant strain) of 4 µg/mL (≈ 11.4 µM). The MIC [5] was over 32 µg/mL, the MIC ([6]; ATCC12228, ATCC 12228) was 1 µg/mL (≈ 2.86 µM) and the MIC ([6]; RP62A) was 1 µg/mL (≈ 2.86 µM). For the same compound, the MIC [7] was over 32 µg/mL, the genotoxicity [8] was “no genotoxicity” and the FICI [9] was at most 0.5. For the same compound, the “erythrocyte, leukocyte, platelet parameters, ALT, BUN, CK vs vehicle” value [10] was “No significant difference”, the “concentration inhibiting biofilm biomass formation” value ([11]; biofilm inhibition) was 0.25 µg/mL and the “concentration eradicating preformed biofilm biomass” value ([11]; preformed biofilm) was 2 µg/mL. The “concentration at which growth inhibition was observed” value [12] was 0.25 ×MIC.
